# Earlier results as cited in patent publication EP4659594A1, “ORAL PRODUCTS CONTAINING MODIFIED NICOTINE-POLYMER COMPLEX” (Nicoventures Trading Limited, priority 2024, dated 2025).
# Settings: octanol/water; source of the values not stated
row,Compound,logP
1,CCCCCCCS(=O)(=O)O [1-heptanesulfonic acid],2.0
2,ethyl benzoic acid,2.9
3,isopropyl benzoic acid,3.5
4,CCCCCCCCCCCC(=O)O [dodecanoic acid],4.6
5,CC(C)[C@@H]1CC[C@@H](C)C[C@H]1OC(=O)CCC(=O)O [monomenthyl succinate],3
